Usually T/C stands for the result in the treated group divided by that in the control group, in per cent.

Several values for one entry are separate records, joined by “and”; a condition that tells them apart may be missing. Equal entries are not always repeated.

This experiment relates to BDF1 mice, Adenocarcinoma 755 s.c., tumor weight T/C. The experiment can be described thus: NCI In Vivo Anticancer Drug Screen. Data for tumor model Adenocarcinoma 755 (subcutaneous) in B6D2F1 (BDF1) mice. As to conditions: endpoint: mean tumor weight, higher = larger tumour. The gist of the method:
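Transplantable tumor implanted; mice dosed with compound or vehicle; survival or tumor size recorded; ratio of treated to vehicle control reported.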

Where [1] appears, read: dose: 37.5 mg/kg/injection, schedule: Q01DX011 (ip), vehicle: methylcellulose (MC).
[2] abbreviates: dose: 15.0 mg/kg/injection, schedule: Q01DX011 (ip), vehicle: methylcellulose (MC).

Take `CC(=O)OCC(=O)[C@@]1(O)CC[C@H]2[C@@H]3C[C@H](C)C4=CC(=O)C=C[C@]4(C)[C@@]3(F)[C@@H](O)C[C@@]21C`: the T/C (dose: 0.06 mg/kg/injection, schedule: Q01DX011 (sc), vehicle: steriod suspending solution) is 101 % of control; the T/C (dose: 0.13 mg/kg/injection, schedule: Q01DX011 (sc), vehicle: steriod suspending solution) was 87 % of control; the T/C (dose: 4.0 mg/kg/injection, schedule: Q01DX011 (sc), vehicle: steriod suspending solution) was 49 % of control; the T/C (dose: 5.0 mg/kg/injection, schedule: Q01DX011 (sc), vehicle: steriod suspending solution) was 48 % of control; the T/C (dose: 9.0 mg/kg/injection, schedule: Q01DX011 (sc), vehicle: steriod suspending solution) is 37 % of control; the T/C (dose: 10.0 mg/kg/injection, schedule: Q01DX011 (sc), vehicle: steriod suspending solution) is 34 % of control. The T/C (dose: 18.0 mg/kg/injection, schedule: Q01DX011 (sc), vehicle: steriod suspending solution) is 37 % of control and 51 % of control; the T/C (dose: 20.0 mg/kg/injection, schedule: Q01DX011 (sc), vehicle: steriod suspending solution) is 21 % of control; the T/C (dose: 37.0 mg/kg/injection, schedule: Q01DX011 (sc), vehicle: steriod suspending solution) was 13 % of control and 22 % of control; the T/C (dose: 75.0 mg/kg/injection, schedule: Q01DX011 (sc), vehicle: steriod suspending solution) was 15 % of control.
`CC1CCC(n2cnc3c(N)ncnc32)O1` (configuration not stated): the T/C reads like this: (dose: 30.0 mg/kg/injection, schedule: Q01DX011 (ip), vehicle: saline) 108 % of control; (dose: 60.0 mg/kg/injection, schedule: Q01DX011 (ip), vehicle: saline) 119 % of control; (dose: 120.0 mg/kg/injection, schedule: Q01DX011 (ip), vehicle: saline) 66 % of control; (dose: 240.0 mg/kg/injection, schedule: Q01DX011 (ip), vehicle: saline) 25 % of control.
For the compound `CC(C)CCn1cnc2c(SCc3ccccc3F)nc(N)nc21`, the T/C by setting is: (dose: 30.0 mg/kg/injection, schedule: Q01DX011 (ip), vehicle: methylcellulose (MC)) 62 % of control; (dose: 100.0 mg/kg/injection, schedule: Q01DX011 (ip), vehicle: methylcellulose (MC)) 65 % of control; (dose: 300.0 mg/kg/injection, schedule: Q01DX011 (ip), vehicle: methylcellulose (MC)) 10 % of control.
With `FC(F)(F)c1nc(Cl)nc2c1ncn2Cc1ccccc1`, the T/C is, setting by setting: (dose: 30.0 mg/kg/injection, schedule: Q01DX011 (ip), vehicle: carboxymethylcellulose (CMC)) 56 % of control; (dose: 60.0 mg/kg/injection, schedule: Q01DX011 (ip), vehicle: carboxymethylcellulose (CMC)) 97 % of control; (dose: 120.0 mg/kg/injection, schedule: Q01DX011 (ip), vehicle: carboxymethylcellulose (CMC)) 97 % of control.
As for `Nc1nc(SCc2ccc(Cl)cc2Cl)c2ncn(C3OC(CO)C(O)C3O)c2n1` (configuration not stated), the T/C reads like this: (dose: 4.69 mg/kg/injection, schedule: Q01DX011 (ip), vehicle: methylcellulose (MC)) 51 % of control; (dose: 9.38 mg/kg/injection, schedule: Q01DX011 (ip), vehicle: methylcellulose (MC)) 49 % of control; (dose: 18.75 mg/kg/injection, schedule: Q01DX011 (ip), vehicle: methylcellulose (MC)) 21 % of control; under setting [1], 2 % of control.
With `CCC(C)Cn1cnc2c(SCC(=O)O)nc(N)nc21` (configuration not stated), the T/C runs as follows: (dose: 25.0 mg/kg/injection, schedule: Q01DX011 (ip), vehicle: methylcellulose (MC)) 78 % of control; (dose: 80.0 mg/kg/injection, schedule: Q01DX011 (ip), vehicle: methylcellulose (MC)) 43 % of control; (dose: 250.0 mg/kg/injection, schedule: Q01DX011 (ip), vehicle: methylcellulose (MC)) 45 % of control.
As for `CCC(C)N1C(=O)CCC1=O` (configuration not stated), the T/C (dose: 37.5 mg/kg/injection, schedule: Q01DX011 (ip), vehicle: saline) is 26 % of control; the T/C (dose: 75.0 mg/kg/injection, schedule: Q01DX011 (ip), vehicle: saline) was 58 % of control; the T/C (dose: 150.0 mg/kg/injection, schedule: Q01DX011 (ip), vehicle: saline) is 95 % of control; the T/C (dose: 300.0 mg/kg/injection, schedule: Q01DX011 (ip), vehicle: saline) was 99 % of control.
In the case of `Cn1c(N)nc2nc[nH]c2c1=O`, the T/C (dose: 9.3 mg/kg/injection, schedule: Q01DX011 (ip), vehicle: methylcellulose (MC)) is 79 % of control; the T/C (dose: 18.7 mg/kg/injection, schedule: Q01DX011 (ip), vehicle: methylcellulose (MC)) is 68 % of control; the T/C under setting [1] is 29 % of control.
On to `CC1(O)CCC2C3CCC4=CC(=O)CCC4C3CCC21C` (configuration not stated), for which the T/C was 93 % of control (dose: 50.0 mg/kg/injection, schedule: Q01DX011 (sc), vehicle: steriod suspending solution); 76 % of control (dose: 100.0 mg/kg/injection, schedule: Q01DX011 (sc), vehicle: steriod suspending solution); 59 % of control (dose: 200.0 mg/kg/injection, schedule: Q01DX011 (sc), vehicle: steriod suspending solution); 51 % of control (dose: 400.0 mg/kg/injection, schedule: Q01DX011 (sc), vehicle: steriod suspending solution); 47 % of control (dose: 500.0 mg/kg/injection, schedule: Q01DX011 (sc), vehicle: steriod suspending solution); 38 % of control (dose: 600.0 mg/kg/injection, schedule: Q01DX011 (sc), vehicle: steriod suspending solution).
For the compound `Cc1c2ccccc2c(C)c2c1ccc1ccccc12`, the T/C is 63 % of control (dose: 9.0 mg/kg/injection, schedule: Q01DX011 (ip), vehicle: carboxymethylcellulose (CMC)); 54 % of control (dose: 19.0 mg/kg/injection, schedule: Q01DX011 (ip), vehicle: carboxymethylcellulose (CMC)); 51 % of control (dose: 38.0 mg/kg/injection, schedule: Q01DX011 (ip), vehicle: carboxymethylcellulose (CMC)).
In the case of `Nc1ncnc2c1ncn2C1CCCC(CO)O1` (configuration not stated), the T/C is, setting by setting: (dose: 50.0 mg/kg/injection, schedule: Q01DX011 (ip), vehicle: saline) 196 % of control; (dose: 100.0 mg/kg/injection, schedule: Q01DX011 (ip), vehicle: saline) 115 % of control; (dose: 200.0 mg/kg/injection, schedule: Q01DX011 (ip), vehicle: saline) 93 % of control.
Regarding `C=CC(O)CN1CC1=C` (configuration not stated) (tested in a mixture with another compound), the T/C (dose: 1.9 mg/kg/injection, schedule: Q01DX011 (ip), vehicle: methylcellulose (MC)) is 95 % of control; the T/C (dose: 3.75 mg/kg/injection, schedule: Q01DX011 (ip), vehicle: methylcellulose (MC)) is 121 % of control; the T/C (dose: 7.5 mg/kg/injection, schedule: Q01DX011 (ip), vehicle: methylcellulose (MC)) was 106 % of control; the T/C under setting [2] was 49 % of control.
As to `NNC(=O)c1ccncc1`, the T/C reads like this: (dose: 15.13 mg/kg/injection, schedule: Q01DX011 (ip), vehicle: carboxymethylcellulose (CMC)) 116 % of control; (dose: 17.62 mg/kg/injection, schedule: Q01DX011 (ip), vehicle: carboxymethylcellulose (CMC)) 160 % of control; (dose: 19.25 mg/kg/injection, schedule: Q01DX011 (ip), vehicle: carboxymethylcellulose (CMC)) 112 % of control; (dose: 30.25 mg/kg/injection, schedule: Q01DX011 (ip), vehicle: carboxymethylcellulose (CMC)) 109 % of control; (dose: 38.5 mg/kg/injection, schedule: Q01DX011 (ip), vehicle: carboxymethylcellulose (CMC)) 78 % of control; (dose: 60.5 mg/kg/injection, schedule: Q01DX011 (ip), vehicle: carboxymethylcellulose (CMC)) 121 % of control. The T/C runs as follows: (dose: 70.5 mg/kg/injection, schedule: Q01DX011 (ip), vehicle: carboxymethylcellulose (CMC)) 178 % of control; (dose: 77.0 mg/kg/injection, schedule: Q01DX011 (ip), vehicle: carboxymethylcellulose (CMC)) 122 % of control; (dose: 121.0 mg/kg/injection, schedule: Q01DX011 (ip), vehicle: carboxymethylcellulose (CMC)) 100 % of control; (dose: 141.0 mg/kg/injection, schedule: Q01DX011 (ip), vehicle: carboxymethylcellulose (CMC)) 202 % of control.
`CSc1ncc(C)c(Nc2ccc(Cl)cc2)n1`: under setting [2], the T/C was 102 % of control.
As to `C/C=C1\CN(C)[C@H]2Cc3c([nH]c4ccccc34)[C@@H](c3cc4[nH]c5c(c4cc3OC)CCN3C[C@H]4C[C@H](CC)[C@H]3[C@@]5(C(=O)OC)C4)C[C@H]1C2C(=O)OC` (some centres not stated), the T/C runs as follows: (dose: 30.0 mg/kg/injection, schedule: Q01DX011 (ip), vehicle: water) 58 % of control; (dose: 35.0 mg/kg/injection, schedule: Q01DX006 (ip), vehicle: water) 57 % of control; (dose: 45.0 mg/kg/injection, schedule: Q01DX011 (ip), vehicle: water) 41 % of control; (dose: 50.0 mg/kg/injection, schedule: Q01DX006 (ip), vehicle: water) 61 % of control and 69 % of control; (dose: 70.0 mg/kg/injection, schedule: Q01DX006 (ip), vehicle: water) 51 % of control; (dose: 80.0 mg/kg/injection, schedule: Q01DX006 (ip), vehicle: water) 54 % of control.

(Values after PubChem BioAssay AID180 (DTP/NCI, 2004).)
